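Five compound concentrations were applied to cells in 96-well plates for 48 hours; endpoints were derived by simple linear interpolation of the resulting dose-response curve. The concentration for 50% growth inhibition is given as GI50.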 Active and inactive are the calls of the source. Rule as the data show it: active = GI50 up to about 1.1 µM and inactive = higher.

Common to all, as to test: growth of human tumour cells (NCI), 48 h
In assay [1] the test system is MOLT-4.
Assay [2] deals with LOX IMVI.
In assay [3] the test system is K562.
The test system of assay [4] is UO-31.
The test system of assay [5] is HOP-62.
The test system of assay [6] is HCT-116.
The test system of assay [7] is TK-10.
Assay [8] deals with Malme-3M.
Assay [9] relates to ACHN.
Assay [10] has as its system UACC-257.
The subject of assay [11] is OVCAR-8.
The subject of assay [12] is KM12.
Assay [13] has as its system RXF 393.
Assay [14] concerns CAKI-1.
In assay [15] the test system is HOP-92.
Assay [16] deals with NCI-H522.
For assay [17], the system named is OVCAR-5.
In assay [18] the test system is SK-OV-3.

As for `CC(/C(=N\Nc1ccccc1)c1ccc(O)cc1)C1C(=O)Oc2ccccc21` (stereo not drawn), the GI50 in [1], in [2], in assay [3], in assay [4], in [5] and in assay [6] was > 100 µM (inactive) throughout. Further, the GI50 in assay [7], in assay [8], in [9], in assay [10], in assay [11] and in assay [12] was > 100 µM (inactive) throughout. The GI50 in assay [13] and in assay [14] was > 100 µM (inactive) in each case.
Regarding `CC(=O)NC(C=O)C(O[C@H](C)C(=O)NC(C)C(=O)NC(CCC(N)=O)C(=O)OCc1ccccc1)C(O)C(O)COC(=O)CCNc1c2ccccc2nc2cccc([N+](=O)[O-])c12` (stereo partly drawn), the GI50 in [1] is 3.57 µM (inactive); in [15], 2.31 µM (inactive); in assay [2] it was 14.6 µM (inactive); in assay [3] it was 2.51 µM (inactive); in assay [4], 16.9 µM (inactive); in assay [5], 2.95 µM (inactive). The GI50 in [6] was 1.37 µM (inactive); in [7] it was 13.6 µM (inactive); in [8] it was 2.15 µM (inactive); in assay [9], 2.94 µM (inactive); in assay [10], 7.46 µM (inactive); in assay [11] it was 4.89 µM (inactive). The GI50 in [12] was 1.91 µM (inactive); in [16], 1.62 µM (inactive); in assay [13], 3.96 µM (inactive); in assay [14] it was 1.45 µM (inactive); in assay [17] it was 3.44 µM (inactive).
`CCN(CC)C(=S)S` [DITIOCARB SODIUM]: the GI50 is > 76.6 µM (inactive) in assay [15]; > 100 µM (inactive) in assay [18]; > 55.5 µM (inactive) in assay [2]; 0.138 µM (active) in [3]; > 100 µM (inactive) in assay [4]; > 100 µM (inactive) in assay [5]. Further, the GI50 in assay [6] is 0.0323 µM (active); in assay [7], > 100 µM (inactive); in assay [8], 19.1 µM (inactive); in assay [9], 53.7 µM (inactive); in [10], 21.2 µM (inactive); in assay [11] it was > 56.1 µM (inactive). For the same molecule, the GI50 in assay [12] was 0.646 µM (active); in assay [16] it was 0.103 µM (active); in assay [13], > 57.4 µM (inactive); in [17], > 100 µM (inactive).
Turning to `Cn1c(=O)nc2n(-c3cccc(F)c3)c3ccccc3nc-2c1=O`, the GI50 was 23.1 µM (inactive) in assay [1]; > 100 µM (inactive) in assay [18]; 18.1 µM (inactive) in assay [2]; 19.6 µM (inactive) in assay [3]; 52 µM (inactive) in assay [4]; 53.2 µM (inactive) in [5]. For the same molecule, the GI50 was 23.6 µM (inactive) in [6]; 31.6 µM (inactive) in assay [7]; 14.4 µM (inactive) in assay [8]; 8 µM (inactive) in assay [9]; 12.8 µM (inactive) in [10]; 23.2 µM (inactive) in assay [11]. The GI50 in [12] is 23.1 µM (inactive); in assay [16] it was 16.6 µM (inactive); in assay [13] it was 67.9 µM (inactive); in assay [14], 27.2 µM (inactive); in assay [17], 33.7 µM (inactive).
Regarding `CC(=O)OCC1OC(N2C(=O)[C@@H](Oc3ccccc3)[C@H]2/C=C/c2ccccc2)C(OC(C)=O)C(OC(C)=O)C1OC(C)=O` (stereo partly drawn), the GI50 in [1] was > 100 µM (inactive); in assay [15], 44.5 µM (inactive); in [18], > 100 µM (inactive); in assay [2], > 100 µM (inactive); in [3], > 100 µM (inactive); in assay [4], > 100 µM (inactive). In addition, the GI50 in [5] is 40.1 µM (inactive); in [6], > 100 µM (inactive); in [7] it was > 100 µM (inactive); in [8] it was > 100 µM (inactive); in assay [9], > 100 µM (inactive); in assay [10], > 100 µM (inactive). The GI50 in [11], in [16], in assay [13] and in [17] was > 100 µM (inactive) each time.
On to `COc1ccc(C2c3cc(OC)c(OC)cc3C(Cc3ccc([N+](=O)[O-])cc3)C2c2ccc([N+](=O)[O-])cc2)cc1OC` (stereo not drawn), for which the GI50 was > 100 µM (inactive) in [1]; 0.879 µM (active) in assay [15]; > 100 µM (inactive) in [2]; > 100 µM (inactive) in assay [3]; 59.6 µM (inactive) in assay [4]; > 100 µM (inactive) in [5]. Moreover, the GI50 is 14 µM (inactive) in [6]; > 100 µM (inactive) in assay [7]; > 100 µM (inactive) in [8]; > 100 µM (inactive) in assay [9]; > 100 µM (inactive) in assay [10]; > 100 µM (inactive) in assay [11]. For the same molecule, the GI50 in [12] is > 100 µM (inactive); in assay [16] it was 51.3 µM (inactive); in assay [13] it was 27.7 µM (inactive); in assay [14], > 100 µM (inactive); in assay [17], > 100 µM (inactive).
`CN1Cc2c(nc(-c3ccc(Br)cc3)c[n+]2[O-])N(C)C1`: the GI50 in [1], in assay [15], in [18], in assay [3], in assay [4] and in assay [5] was > 100 µM (inactive) in each case. The GI50 in assay [6], in assay [8], in assay [9], in [10], in assay [11] and in assay [12] was > 100 µM (inactive) in each case. For the same molecule, the GI50 in assay [16], in [13], in assay [14] and in assay [17] was > 100 µM (inactive) each time.
With `COc1cccc(/C=C/c2cc(OC)c(OC)c(OC)c2)c1`, the GI50 in assay [1] was 36.6 µM (inactive); in assay [15] it was > 100 µM (inactive); in assay [18], 38.2 µM (inactive); in [3] it was 33.3 µM (inactive); in assay [4], 21.2 µM (inactive); in assay [5], 37 µM (inactive). Further, the GI50 is 33 µM (inactive) in assay [6]; 34.8 µM (inactive) in [8]; 87.5 µM (inactive) in assay [9]; 38.3 µM (inactive) in assay [10]; 55.6 µM (inactive) in [11]; 66.4 µM (inactive) in [12]. Besides, the GI50 in assay [16] and in assay [17] was > 100 µM (inactive) in each case.
As to `O=C(c1ccc(Cl)cc1Cl)C1[C@H]2C(=O)N(c3ccc(Cc4ccc(N5C(=O)[C@@H]6ON(c7ccccc7)C(C(=O)c7ccc(Cl)cc7Cl)[C@@H]6C5=O)cc4)cc3)C(=O)[C@H]2ON1c1ccccc1` (stereo partly drawn), the GI50 in [1], in assay [18], in assay [2], in [3], in [4] and in assay [5] was > 50 µM (inactive) in each case. The GI50 in assay [6], in assay [7], in assay [8], in assay [9], in assay [10] and in [11] was > 50 µM (inactive) in each case. In addition, the GI50 in [12], in assay [16], in assay [13], in [14] and in assay [17] was > 50 µM (inactive) throughout.
As for `Cc1ccc(NC(=O)CC2SC(=N)NC2=O)cc1C` (stereo not drawn), the GI50 in [1], in assay [15], in assay [18], in assay [2], in assay [3] and in [4] was > 100 µM (inactive) in each case. For the same molecule, the GI50 in [5], in assay [6], in assay [7], in assay [8], in [9] and in assay [10] was > 100 µM (inactive) each time. Moreover, the GI50 in assay [11], in [12], in assay [16], in [14] and in [17] was > 100 µM (inactive) each time.
On to `COCC(O)Cn1ccnc1[N+](=O)[O-]` (stereo not drawn) [MISONIDAZOLE], for which the GI50 in assay [1], in [18], in assay [2], in assay [3], in [4] and in assay [5] was > 100 µM (inactive) in each case. In addition, the GI50 in [6], in assay [7], in assay [8], in [9], in assay [10] and in [11] was > 100 µM (inactive) in each case. The GI50 in assay [12], in assay [16], in assay [14] and in [17] was > 100 µM (inactive) in each case.
`COC(=O)CC1C[C@H](C#N)N(C(=O)c2ccccc2)C[C@@H]1CC[N+](=O)[O-]` (stereo partly drawn): the GI50 in [1], in assay [15], in assay [18], in [2], in [3] and in assay [4] was > 100 µM (inactive) each time. Further, the GI50 in assay [5], in [6], in assay [7], in assay [8], in [9] and in assay [10] was > 100 µM (inactive) throughout. Besides, the GI50 in assay [11], in assay [12], in assay [13] and in assay [17] was > 100 µM (inactive) each time.

(Values after ChEMBL document CHEMBL1201862, “PubChem BioAssay data set” (2004).)
